Assay results: publication PMC5437114, “Exploring Pharmacological Mechanisms of Lavender (Lavandula angustifolia) Essential Oil on Central Nervous System Targets” (Frontiers in Pharmacology, 2017)

Target: T1, serotonin transporter (SERT) (Rattus norvegicus, UniProt P31652)
T1 construct: 225 μl of rat cortex suspension; from tissue; host or cells: rat (Sprague Dawley) brain cortex homogenate
Assay: Serotonin transporter assay ([3H]-citalopram binding assay)
Details: rat cortex

T1 sequence (P31652 whole entry): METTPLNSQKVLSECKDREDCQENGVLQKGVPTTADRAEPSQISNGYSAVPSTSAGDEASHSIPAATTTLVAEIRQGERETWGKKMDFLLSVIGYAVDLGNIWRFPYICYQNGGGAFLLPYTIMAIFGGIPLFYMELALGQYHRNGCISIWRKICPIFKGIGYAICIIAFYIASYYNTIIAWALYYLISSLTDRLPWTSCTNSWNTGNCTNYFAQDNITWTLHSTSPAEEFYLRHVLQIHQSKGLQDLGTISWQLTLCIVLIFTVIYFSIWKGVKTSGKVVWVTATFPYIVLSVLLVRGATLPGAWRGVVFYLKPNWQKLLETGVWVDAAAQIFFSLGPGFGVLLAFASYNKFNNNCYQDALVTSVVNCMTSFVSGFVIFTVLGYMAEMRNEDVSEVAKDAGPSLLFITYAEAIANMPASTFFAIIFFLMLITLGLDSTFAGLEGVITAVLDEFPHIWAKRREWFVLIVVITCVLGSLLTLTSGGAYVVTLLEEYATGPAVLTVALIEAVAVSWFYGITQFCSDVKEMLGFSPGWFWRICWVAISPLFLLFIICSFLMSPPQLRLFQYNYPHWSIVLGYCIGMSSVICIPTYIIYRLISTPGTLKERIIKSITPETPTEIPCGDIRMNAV

Row | Structure (SMILES) | Activity in the SERT assay (displacement of 3H-citalopram), in words
1 | C=CC(C)(O)CCC=C(C)C (centres unmarked) [Linalool, linalool] | effect was also detected
2 | C=CC(C)(CCC=C(C)C)OC(C)=O (centres unmarked) [Linalyl acetate, linalyl acetate] | did not show affinity
